The text below walks through data of US5208245A, “Dihydropyridine derivative” (Wakunaga Seiyaku Kabushiki Kaisha, priority 1990, dated 1993).

Data set [1] concerns spontaneous hypertensive rats. The data set is described as follows: Antihypertensive action in spontaneous hypertensive rats (SHR), oral administration. The following applies: 10 mg/kg orally, (basal - lowest blood pressure)/basal x 100. It is filed as in vivo, rat. How it is done:
Test compounds were orally administered to spontaneous hypertensive rats (abbreviated as "SHR" hereinafter) to examine antihypertensive actions thereof.
Two to three days after the operation, the catheter was drawn out from the dorsum cervical part of the rat, and was connected to a blood-pressure measuring device (Polygraph RM-6000 manufactured by Nippon Koden K. K.). Blood pressure and heart rate were measured under the condition without anesthesia and restraint. The test compounds were suspended in 0.5% carboxymethylcellulose for oral administration. To the basal blood pressure obtained by measuring blood pressure over four hours, the lowest blood pressure decreased by the test compounds was used to determine the rate of blood-pressure decrease.
Rate of blood-pressure decrease (%)=(A-B)/A×100
The compound numbers correspond to those indicated in Examples.

Data set [2] relates to longitudinal muscle of guinea pig ileum. As to the kind of experiment: Calcium antagonism: inhibition of KCl-induced contraction of ileum longitudinal muscle. The following applies: Cavia porcellus, 1 h; 10^-8 M; 60 min after addition; 80 mM KCl contraction = 100%; 37° C.; read-out: Inhibition rate. How it is done: A guinea pig having a body weight ranging from 350 g to 400 g was exsanguinated to death and laparotomized, to extract ileum. According to the method of Rosenberger et al. (Rosenberger et al., Can. J. Physiol. Pharmacol. 57, 333-347 (1979)), a sample of longitudinal muscle was prepared from the ileum. Then, a mixed gas consisting of 95% oxygen and 5% carbon dioxide was aerated, while the atmosphere was maintained at 37° C. The sample of the longitudinal muscle of the extracted ileum was placed in a magnus tube containing 20 ml of Tyrode solution, and suspended at 0.5 g of tension. As a comparison, 80 mM KCl was administered to contract the longitudinal muscle. Subsequently, 60 min after the addition of each of the test compounds (10^-8 M), the contraction with KCl was again induced. The level of the contraction obtained by the administration of 80 mM KCl was assigned to 100%, and the inhibition rate thereto was determined.

Data set [3] is described as follows: Acute toxicity test, intravenous, mice. Conditions: mouse, in vivo, male ddY mice, observed two weeks. As to the method: Male ddY mice (5-7 weeks old) were divided into groups each consisting of 4 mice. The test compounds were dissolved in physiological saline containing 50% polyethylene glycol 400, which was then administered intravenously to the mice, and they were put under observation over two weeks. The analysis was done following the Van der Worden method.

As for `COC(=O)C1=C(C)NC(C)=C(C(=O)OC2CCOc3ccccc32)C1c1cccc(Cl)c1Cl` (stereo not drawn) [Compound 3], the “Rate of blood pressure decrease” value in data set [1] is on record as 35.1%. In data set [2], the inhibition at 0.01 µM is 81%.
In the case of `COC(=O)C1=C(C)NC(C)=C(C(=O)OC2CC(C)(C)Oc3ccccc32)C1c1cccc(Cl)c1Cl` (stereo not drawn) [Compound 21, 3-(3,4-dihydro-2,2-dimethyl-2H-benzo[b]pyran-4-yl)5-methtyl 1,4-dihydro-2,6-dimethyl-4-(2,3-dichorophenyl)pyridine-3,5-dicarboxylate], the “Rate of blood pressure decrease” value in data set [1] is 37.3%. Besides, the inhibition at 0.01 µM in data set [2] was 69%. The compound further displayed an LD50 at 336 h in data set [3] of 29.7 mg/kg.
`CCOC(=O)C1=C(C)NC(C)=C(C(=O)OC2CC(C)(C)Oc3ccccc32)C1c1cccc(Cl)c1Cl` (stereo not drawn) [Compound 27, 3-(3,4-dihydro-2,2-dimethyl-2H-benzo[b]pyran-4-yl)5-ethyl 1,4-dihydro-2,6-dimethyl-4-(2,3-dichlorophenyl)pyridine-3,5-dicarboxylate]: the “Rate of blood pressure decrease” value in data set [1] is on record as 36.9%. Also, the inhibition at 0.01 µM in data set [2] was 42%.
As to `COC(=O)C1=C(C)NC(C)=C(C(=O)OC)C1c1ccccc1[N+](=O)[O-]` [Nifedipine, reference compound], the “Rate of blood pressure decrease” value in data set [1] was 24.3%. Besides, the inhibition at 0.01 µM in data set [2] worked out at 98%.

As a reminder, the inhibition is the percentage by which the read-out fell short of the control. A word on the LD50: it is the dose at which mortality reaches 50%. High values mean a less toxic substance, low ones a more toxic substance.
